Test results from US11807693B2 (priority 2014, dated 2023).
Starred links: 1 amine or outer side, 2 acyl side, 3 side chain; linkers in the order of their positions; H or OH if unused. Non-standard residues stand in square brackets, D forms with d. Residues, ends and D or L forms follow the SMILES beside them. *: point of attachment. dBip = N[C@H](Cc1ccc(-c2ccccc2)cc1)C(=O)O; Oic = O=C(O)[C@@H]1C[C@@H]2CCCC[C@@H]2N1; Phe(4-Cl) = N[C@@H](Cc1ccc(Cl)cc1)C(=O)O; dPhe(4-Cl) = N[C@H](Cc1ccc(Cl)cc1)C(=O)O; Phe(4-I) = N[C@@H](Cc1ccc(I)cc1)C(=O)O; γGlu = O=C(O)[C@H](CCC(=O)[*:2])N[*:1]; NMeR = CN[C@@H](CCCNC(=N)N)C(=O)O; Palmitoyl = CCCCCCCCCCCCCCCC(=O)*; Tridecanoyl = CCCCCCCCCCCCC(=O)*; hArg = N=C(N)NCCCC[C@H](N)C(=O)O; αMeF = C[C@](N)(Cc1ccccc1)C(=O)O; 3Pal = N[C@@H](Cc1cccnc1)C(=O)O; dTic = O=C(O)[C@H]1Cc2ccccc2CN1; Cha = N[C@@H](CC1CCCCC1)C(=O)O; NMeL = CN[C@@H](CC(C)C)C(=O)O; αMeL = CC(C)C[C@](C)(N)C(=O)O; β3hP = O=C(O)C[C@@H]1CCCN1; Pip = O=C(O)[C@@H]1CCCCN1; Nle = CCCC[C@H](N)C(=O)O; AEEA = NCCOCCOCC(=O)O; Aib = CC(C)(N)C(=O)O; NPrGly = CCCNCC(=O)O

These compounds were tested against T1, human APJ receptor (Homo sapiens, UniProt P35414) (assay: [35S] GTPγS assay, human APJ receptor). Details: Table 16.
T1 construct: expressed in transfected cells
T1 sequence (P35414 1-380): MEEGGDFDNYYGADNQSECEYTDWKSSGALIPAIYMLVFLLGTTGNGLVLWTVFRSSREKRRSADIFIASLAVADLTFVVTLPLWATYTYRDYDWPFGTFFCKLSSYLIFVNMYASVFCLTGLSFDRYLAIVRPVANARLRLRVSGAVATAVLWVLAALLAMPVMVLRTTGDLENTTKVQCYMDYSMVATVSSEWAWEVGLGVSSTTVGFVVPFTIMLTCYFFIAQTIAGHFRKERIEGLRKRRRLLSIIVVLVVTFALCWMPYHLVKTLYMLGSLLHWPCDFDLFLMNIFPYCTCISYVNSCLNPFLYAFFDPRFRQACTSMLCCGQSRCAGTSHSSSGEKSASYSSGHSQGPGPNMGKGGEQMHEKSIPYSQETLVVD
Type: biochemical
Protocol: The membranes were incubated with modified peptides in the assay buffer. […] Bound [^35S] GTPγS was separated from free radiolabel by filtration. The filter bound radioactivity was determined by liquid scintillation counting.

`CCCCCCCCCCCCC(=O)N[C@@H](CCC(=O)NCCOCCOCC(=O)NCCOCCOCC(=O)N[C@@H](CCC(N)=O)C(=O)N[C@@H](CCCNC(=N)N)C(=O)N1CCC[C@H]1C(=O)N(C)[C@@H](CCCNC(=N)N)C(=O)N[C@@H](CC1CCCCC1)C(=O)N[C@@H](CO)C(=O)N[C@@H](Cc1c[nH]cn1)C(=O)N[C@@H](CCCCN)C(=O)NCC(=O)N1[C@H](C(=O)N[C@@H](CCCC)C(=O)N2CCC[C@H]2C(=O)N[C@H](Cc2ccc(Cl)cc2)C(=O)O)C[C@@H]2CCCC[C@@H]21)C(=O)O` [compound 381] ({Tridecanoyl-γGlu-AEEA-AEEA}-QRP[NMeR][Cha]SHKG[Oic][Nle]P[dPhe(4-Cl)]-OH) showed an EC50 of 6.11 nM.

Same assay, conditions: human APJ receptor

Compared with `CCCCCCCCCCCCC(=O)N[C@@H](CCC(=O)NCCOCCOCC(=O)NCCOCCOCC(=O)N[C@@H](CCCCNC(=N)N)C(=O)N[C@@H](CCCC)C(=O)N[C@@H](CCC(N)=O)C(=O)N[C@@H](CCCCNC(=N)N)C(=O)N1CCC[C@H]1C(=O)N[C@H](CCCNC(=N)N)C(=O)N(C)[C@@H](CC(C)C)C(=O)N[C@@H](C)C(=O)N[C@@H](Cc1c[nH]cn1)C(=O)N[C@@H](CCCCN)C(=O)NCC(=O)N1[C@H](C(=O)N[C@@H](Cc2ccc(I)cc2)C(=O)N2CCC[C@H]2C(=O)N[C@H](Cc2ccc(-c3ccccc3)cc2)C(=O)O)C[C@@H]2CCCC[C@@H]21)C(=O)O` [compound 321] ({Tridecanoyl-γGlu-AEEA-AEEA}-[hArg][Nle]Q[hArg]P[dR][NMeL]AHKG[Oic][Phe(4-I)]P[dBip]-OH), `CCCCCCCCCCCCCCCC(=O)N[C@@H](CCC(=O)NCCOCCOCC(=O)NCCOCCOCC(=O)N[C@H](CCC(N)=O)C(=O)N[C@@H](CCCNC(=N)N)C(=O)N1CCC[C@H]1C(=O)N(C)[C@@H](CCCNC(=N)N)C(=O)N[C@@](C)(CC(C)C)C(=O)N[C@@H](CO)C(=O)N[C@@H](Cc1c[nH]cn1)C(=O)N[C@@H](Cc1cccnc1)C(=O)NCC(=O)N1[C@H](C(=O)N[C@@H](CCCC)C(=O)N2CCC[C@H]2CC(=O)N[C@@H](Cc2ccc(Cl)cc2)C(=O)O)C[C@@H]2CCCC[C@@H]21)C(=O)O` [compound 636] ({Palmitoyl-γGlu-AEEA-AEEA}-[dQ]RP[NMeR][αMeL]SH[3Pal]G[Oic][Nle][β3hP][Phe(4-Cl)]-OH) is 11-fold lower in EC50: 17.9 nM for the first, 1.59 nM for the second.

Compared with `CCCCCCCCCCCCCCCC(=O)N[C@@H](CCC(=O)NCCOCCOCC(=O)NCCOCCOCC(=O)N[C@H](CCC(N)=O)C(=O)N[C@@H](CCCNC(=N)N)C(=O)N1CCC[C@H]1C(=O)N(C)[C@@H](CCCNC(=N)N)C(=O)N[C@@H](CC1CCCCC1)C(=O)N[C@@H](CO)C(=O)N[C@@H](Cc1c[nH]cn1)C(=O)N[C@@H](CCCCN)C(=O)NCC(=O)N1CCCC[C@H]1C(=O)N[C@@H](CCCC)C(=O)N1CCC[C@H]1C(=O)N1Cc2ccccc2C[C@@H]1C(=O)O)C(=O)O` [compound 599] ({Palmitoyl-γGlu-AEEA-AEEA}-[dQ]RP[NMeR][Cha]SHKG[Pip][Nle]P[dTic]-OH), `CCCCCCCCCCCCCCCC(=O)N[C@@H](CCC(=O)NCCOCCOCC(=O)NCCOCCOCC(=O)N[C@H](CCC(N)=O)C(=O)N[C@@H](CCCNC(=N)N)C(=O)N1CCC[C@H]1C(=O)N(C)[C@@H](CCCNC(=N)N)C(=O)N[C@@H](CC1CCCCC1)C(=O)N[C@@H](CO)C(=O)N[C@@H](Cc1c[nH]cn1)C(=O)N[C@@H](CCCCN)C(=O)NCC(=O)N1[C@H](C(=O)N[C@@H](CCCC)C(=O)N2CCCC[C@H]2C(=O)N[C@@](C)(Cc2ccccc2)C(=O)O)C[C@@H]2CCCC[C@@H]21)C(=O)O` [compound 609] ({Palmitoyl-γGlu-AEEA-AEEA}-[dQ]RP[NMeR][Cha]SHKG[Oic][Nle][Pip][αMeF]-OH) is 2.8-fold higher in EC50: 0.44 nM for the first, 1.25 nM for the second. The first is the more potent here.

Going from `CCCCCCCCCCCCCCCC(=O)N[C@@H](CCC(=O)NCCOCCOCC(=O)NCCOCCOCC(=O)N[C@H](CCC(N)=O)C(=O)N[C@@H](CCCNC(=N)N)C(=O)N1CCC[C@H]1C(=O)N(C)[C@@H](CCCNC(=N)N)C(=O)N[C@@H](CC1CCCCC1)C(=O)N[C@@H](CO)C(=O)N(CCC)CC(=O)N[C@@H](CCCCN)C(=O)NCC(=O)N1CCCC[C@H]1C(=O)N[C@@H](CCCC)C(=O)NC(C)(C)C(=O)N[C@@H](Cc1ccc(Cl)cc1)C(=O)O)C(=O)O` [compound 644] ({Palmitoyl-γGlu-AEEA-AEEA}-[dQ]RP[NMeR][Cha]S[NPrGly]KG[Pip][Nle][Aib][Phe(4-Cl)]-OH) to `CCCCCCCCCCCCC(=O)N[C@@H](CCC(=O)NCCOCCOCC(=O)NCCOCCOCC(=O)N[C@@H](CC(N)=O)CC(=O)N[C@@H](CCCNC(=N)N)C(=O)N1CCC[C@H]1C(=O)N(C)[C@@H](CCCNC(=N)N)C(=O)N[C@@H](CC(C)C)C(=O)N[C@@H](CO)C(=O)N[C@@H](Cc1c[nH]cn1)C(=O)N[C@@H](CCCCN)C(=O)NCC(=O)N1CCC[C@H]1C(=O)N[C@@H](CCCC)C(=O)N1CCC[C@H]1C(=O)N[C@@H](Cc1ccc(Cl)cc1)C(=O)O)C(=O)O` [compound 420], the EC50 falls from 1.4 nM to 0.0526 nM (27-fold). The second is the more potent here.
